# Reference: patent publication EP0602465A1, “Use of CN substituted benzimidazoles” (BAYER AG, priority 1992, dated 1994)
# Experiments:
# Assay in all cases: Coccidiosis in chickens: oocyst excretion in faeces (McMaster chamber)
# Format in all cases: in vivo
# Details in all cases: 3 days before until 8 days after infection, chicks 9 to 11 days old, 40 000 sporulated oocysts, 100 % = no effect, 0 % = full effect
# E.acervulina = test system: E.acervulina
# E. maxima = test system: E. maxima
# E. tenella = test system: E. tenella
Compound,E.acervulina Oocystenausscheidung in % im Vergleich zur unbehandelten infizierten Kontrolle (E.acervulina; Dosis 100 ppm in feed) [%],E.acervulina Oocystenausscheidung in % im Vergleich zur unbehandelten infizierten Kontrolle (E.acervulina; Dosis 250 ppm in feed),E. maxima Oocytenausscheidung in % im Vergleich zur unbehandelten infizierten Kontrolle (E. maxima; Dosis 100 ppm in feed),E. maxima Oocytenausscheidung in % im Vergleich zur unbehandelten infizierten Kontrolle (E. maxima; Dosis 250 ppm in feed) [%],E. tenella (E. tenella; Dosis 100 ppm in feed) [%],E. tenella (E. tenella; Dosis 250 ppm in feed) [%]
CCCCN(Cn1c(C#N)nc2c(Br)cc(C(F)(F)F)cc21)C(=O)OC [Beispiel 37],28,"0,5%",26%,0,32,0
CC(C)OC(=O)N(Cc1ccccc1)Cn1c(C#N)nc2c(Br)cc(C(F)(F)F)cc21 [Beispiel 57],38,"0,01%","5,3%",0,93,0
